Literature values, collected in patent publication US20050148552A1, “Methods of treating eczema” (priority 2003, published 2005).
Where a name gives a salt, the structure may show the parent alone.

What was measured:
[1] = 250 mg every six hours over a twenty-four hour period
[2] = single dose of two 100 mg minocycline HCl tablets or capsules, adult humans

| average minocycline serum level [2] | Compound | peak serum level [1] |
| --- | --- | --- |
|  | CN(C)[C@@H]1C(O)=C(C(N)=O)C(=O)[C@@]2(O)C(O)=C3C(=O)c4c(O)cccc4[C@@](C)(O)[C@H]3C[C@@H]12 [tetracycline HCl] | approximately 3 μg/ml |
| 2.24 µg/mL | CN(C)c1ccc(O)c2c1C[C@H]1C[C@H]3[C@H](N(C)C)C(O)=C(C(N)=O)C(=O)[C@@]3(O)C(O)=C1C2=O [minocycline HCl] |  |
